Measurements published in ChEMBL document CHEMBL1129856, “Novel optimised quinuclidine squalene synthase inhibitors” (Bioorg Med Chem Lett, 1997).

Tests used:
Rattus norvegicus [1] = organism: Rattus norvegicus; test: Tested for inhibition of cholesterol biosynthesis in rat; assay type: functional
[2] = Plasma half life of hydrolysis of the compound; assay type: ADME, organism-based; details: rat
Squalene synthase [3] = biological target: T1, Squalene synthase (Rattus norvegicus, UniProt Q02769); test: Tested for its inhibitory activity against rat microsomal […] squalene synthase (SQS)
T1 sequence (Q02769 whole entry): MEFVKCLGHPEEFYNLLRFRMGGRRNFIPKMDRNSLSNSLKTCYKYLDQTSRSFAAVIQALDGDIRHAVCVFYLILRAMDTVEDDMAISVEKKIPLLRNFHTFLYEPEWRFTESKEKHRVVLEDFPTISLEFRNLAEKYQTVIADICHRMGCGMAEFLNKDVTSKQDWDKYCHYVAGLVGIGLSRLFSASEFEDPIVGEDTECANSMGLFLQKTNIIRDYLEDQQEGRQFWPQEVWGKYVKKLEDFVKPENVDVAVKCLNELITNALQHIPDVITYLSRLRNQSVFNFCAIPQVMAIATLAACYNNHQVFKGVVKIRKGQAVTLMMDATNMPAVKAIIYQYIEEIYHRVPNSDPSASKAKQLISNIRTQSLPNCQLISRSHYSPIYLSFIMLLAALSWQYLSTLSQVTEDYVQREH

Rattus norvegicus [4] = organism: Rattus norvegicus; test: Tested for inhibition against rat cholesterol biosynthesis; assay type: functional
Squalene synthase [5] = biological target: T2, Squalene synthase (Homo sapiens, UniProt P37268); test: Tested for its inhibitory activity against human microsomal […] squalene synthase (SQS)
T2 sequence (P37268 whole entry): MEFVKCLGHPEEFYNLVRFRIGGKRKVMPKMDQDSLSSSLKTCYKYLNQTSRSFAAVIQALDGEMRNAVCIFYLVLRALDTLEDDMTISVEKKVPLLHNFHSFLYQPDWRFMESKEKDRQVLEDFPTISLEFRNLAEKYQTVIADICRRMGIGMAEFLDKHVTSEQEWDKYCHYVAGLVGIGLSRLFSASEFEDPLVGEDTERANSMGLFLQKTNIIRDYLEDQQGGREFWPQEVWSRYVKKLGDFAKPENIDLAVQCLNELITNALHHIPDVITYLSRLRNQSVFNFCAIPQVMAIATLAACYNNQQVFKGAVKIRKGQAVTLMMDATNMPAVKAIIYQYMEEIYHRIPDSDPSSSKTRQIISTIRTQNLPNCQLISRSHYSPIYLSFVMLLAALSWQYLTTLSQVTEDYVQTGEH

C=CCc1cc(CCC(=O)OCc2ccccc2)ccc1C#CC1(O)CN2CCC1CC2 (stereo not drawn)
ED50 (Rattus norvegicus [1]): 1.6 mg/kg | half-life [2]: ≤ 5 min

C=CCc1cc(CC(=O)OCC)ccc1C#CC1(O)CN2CCC1CC2 (stereo not drawn)
Ki (Squalene synthase [3]): 100 nM

C=CCc1cc(CCCCCC(=O)OC)ccc1C#CC1(O)CN2CCC1CC2 (stereo not drawn)
ED50 (Rattus norvegicus [4]): 1.3 mg/kg | Ki (Squalene synthase [3]): 20 nM

C=CCc1cc(CCC(=O)OCCCCCC)ccc1C#CC1(O)CN2CCC1CC2 (stereo not drawn)
ED50 (Rattus norvegicus [1]): 1.5 mg/kg | half-life [2]: ≤ 5 min

C=CCc1cc(CCC(N)=O)ccc1C#CC1(O)CN2CCC1CC2 (stereo not drawn)
Ki (Squalene synthase [3]): > 250 nM

C=CCc1cc(CCC(=O)N(CC)CC)ccc1C#CC1(O)CN2CCC1CC2 (stereo not drawn)
Ki (Squalene synthase [3]): > 250 nM

C=CCc1cc(CCC#N)ccc1C#CC1(O)CN2CCC1CC2 (stereo not drawn)
Ki (Squalene synthase [3]): > 250 nM

C=CCc1cc(CCC(=O)OCC)ccc1C#CC1(O)CN2CCC1CC2 (stereo not drawn)
half-life [2]: ≤ 5 min | Ki (Squalene synthase [5]): 43 nM | ED50 (Rattus norvegicus [4]): 1.3 mg/kg | Ki (Squalene synthase [3]): 6 nM

C=CCc1cc(CCC(=O)OC)ccc1C#CC1(O)CN2CCC1CC2 (stereo not drawn)
ED50 (Rattus norvegicus [4]): 1.3 mg/kg | Ki (Squalene synthase [3]): 20 nM

C=CCc1cc(CCCC(=O)OC)ccc1C#CC1(O)CN2CCC1CC2 (stereo not drawn)
ED50 (Rattus norvegicus [4]): 1.3 mg/kg | Ki (Squalene synthase [3]): 2 nM

C=CCc1cc(CCC(=O)NC)ccc1C#CC1(O)CN2CCC1CC2 (stereo not drawn)
Ki (Squalene synthase [3]): > 250 nM

C=CCc1cc(CCCCC(=O)OC)ccc1C#CC1(O)CN2CCC1CC2 (stereo not drawn)
ED50 (Rattus norvegicus [4]): 1.3 mg/kg | Ki (Squalene synthase [3]): 8 nM

C=CCc1cc(CCC(=O)O)ccc1C#CC1(O)CN2CCC1CC2.Cl (stereo not drawn)
ED50 (Rattus norvegicus [1]): 1.8 mg/kg

C=CCc1cc(CCC(=O)O)ccc1C#C[C@@]1(O)CN2CCC1CC2.Cl (single isomer, unassigned)
ED50 (Rattus norvegicus [1]): 0.9 mg/kg
